This experiment has as its system OPM-2. Briefly: Antitumor activity against human OPM2 cells xenografted in SCID-beige mouse assessed as inhibition of tumor growth at 7.5 mg/kg, po qd administered for 28 days starting from 18 days post tumor inoculation. The format is functional. The note with it: OPM-2, po, read-out: TGI. On the technique in general: Xenograft models place foreign cells or tissue in a host animal.

In the case of `Cn1cc2c3c(c[nH]c(=O)c31)-c1cc(CS(C)(=O)=O)ccc1N(c1ccc(F)cc1)C2`, the inhibition in vivo at 7.5 mg/kg was found to be 84%.

For the origin of these results see ChEMBL document CHEMBL4190379 (Bioorg Med Chem Lett, 2018).
